Among the data in BindingDB's records for doi:10.1016/j.bmcl.2014.08.029 (Rhône-Poulenc Rorer, 2014) are IC50 values, retold here.

The test can be described thus: Antagonist activity at CRTh2 receptor in human whole blood assessed as inhibition of PGD2-induced eosinophil shape change preincubated for 10 mins with PGD2 addition measured after 4 mins by forward scatter and side scatter analysis.
Take `CCN(Cc1cc(C(F)(F)F)ccc1-n1cc(CC(=O)O)c2cccnc21)C(=O)C1CC1`: the 50% inhibitory concentration (IC50) (in general, the concentration needed to halve the response being measured) turned out to be 34 nM.

For the compound `CCN(Cc1cc(C(F)(F)F)ccc1-c1nn(CC(=O)O)c2cccc(Cl)c12)C(=O)C1CC1`, the IC50 was 160 nM. With `CCN(Cc1cc(C(F)(F)F)ccc1-c1nn(CC(=O)O)c2cccc(F)c12)C(=O)C1CC1` the figure was 23 nM; with `CCN(Cc1cc(C(F)(F)F)ccc1-c1nn(CC(=O)O)c2cccc(OC)c12)C(=O)C1CC1`, 27 nM. With `CCN(Cc1cc(C(F)(F)F)ccc1-c1nn(CC(=O)O)c2cccc(C)c12)C(=O)C1CC1` the figure was 108 nM; with `CCN(Cc1cc(C(F)(F)F)ccc1-c1nn(CC(=O)O)c2cccc(C#N)c12)C(=O)C1CC1`, 103 nM; with `CCN(Cc1cc(C(F)(F)F)ccc1-c1nn(CC(=O)O)c2ccc(Cl)cc12)C(=O)C1CC1`, 23 nM. On to `CCN(Cc1cc(C(F)(F)F)ccc1-c1nn(CC(=O)O)c2ccc(C)cc12)C(=O)C1CC1`, for which the IC50 stood at 13 nM. In the case of `CCN(Cc1cc(C(F)(F)F)ccc1-c1nn(CC(=O)O)c2ccc(F)cc12)C(=O)C1CC1`, the IC50 worked out at 34 nM. With `CCN(Cc1cc(C(F)(F)F)ccc1-c1nn(CC(=O)O)c2ccc(Cl)c(F)c12)C(=O)C1CC1` the figure was 18 nM; with `CCN(Cc1cc(C(F)(F)F)ccc1-c1nn(CC(=O)O)c2ccc(F)c(Cl)c12)C(=O)C1CC1`, 71 nM. Turning to `CCN(Cc1cc(C(F)(F)F)ccc1-n1cc(CC(=O)O)c2ccc(C)nc21)C(=O)C1CC1`, the IC50 is 7.8 nM. With `CCN(Cc1cc(C(F)(F)F)ccc1-n1cc(CC(=O)O)c2ccc(C(F)F)nc21)C(=O)C1CC1`, the IC50 stood at 8 nM. As for `CCN(Cc1cc(F)ccc1-n1cc(CC(=O)O)c2cccnc21)C(=O)C1CC1`, the IC50 came out at 11 nM. For the compound `CCN(Cc1cc(F)ccc1-n1cc(CC(=O)O)c2ccc(C)nc21)C(=O)C1CC1`, the IC50 was 6.4 nM. With `CCN(Cc1ccccc1-n1cc(CC(=O)O)c2ccc(C)nc21)C(=O)C1CC1` the figure was 9.5 nM; with `CCN(Cc1cc(Cl)ccc1-n1cc(CC(=O)O)c2ccc(C)nc21)C(=O)C1CC1`, 18 nM. With `CCN(Cc1cc(C)ccc1-n1cc(CC(=O)O)c2ccc(C)nc21)C(=O)C1CC1` the figure was 13 nM. On to `CCN(Cc1cc(OC(F)(F)F)ccc1-n1cc(CC(=O)O)c2ccc(C)nc21)C(=O)C1CC1`, for which the 50% inhibitory concentration (IC50) stood at 6.7 nM. On to `CCN(Cc1cc(F)ccc1-c1cn(CC(=O)O)c2ccc(C(F)(F)F)cc12)C(=O)C1CC1`, for which the IC50 came to 17 nM. With `CCN(Cc1cc(C(F)(F)F)ccc1-c1cn(CC(=O)O)c2ccc(C)nc12)C(=O)C1CC1` the figure was 10 nM; with `CCN(Cc1cc(C(F)(F)F)ccc1-c1cn(CC(=O)O)c2ccc(C(F)(F)F)nc12)C(=O)C1CC1`, 82 nM; with `CCN(Cc1ccccc1-n1cc(CC(=O)O)c2ccc(C(F)(F)F)cc21)C(=O)C1CC1`, 7.7 nM. With `CCN(Cc1cc(C(F)(F)F)ccc1-c1cc(CC(=O)O)n2ccc(C)nc12)C(=O)C1CC1` the figure was 24 nM; with `CCN(Cc1cc(C(F)(F)F)ccc1-c1cc(CC(=O)O)c2ccc(C)nn12)C(=O)C1CC1`, 7.3 nM; with `CCN(Cc1cc(C(F)(F)F)ccc1-n1cc(CC(=O)O)c2ccc(C)nc21)C(=O)C1CCC1`, 8.5 nM. On to `CCN(Cc1cc(C(F)(F)F)ccc1-n1cc(CC(=O)O)c2ccc(C)nc21)C(=O)CC1CC1`, for which the IC50 turned out to be 29 nM. For the compound `CCN(Cc1cc(C(F)(F)F)ccc1-n1cc(CC(=O)O)c2ccc(C)nc21)C(=O)COC`, the IC50 came out at 5 nM.

For the compound `CCN(Cc1cc(C(F)(F)F)ccc1-n1cc(CC(=O)O)c2ccc(C)nc21)C(=O)Cc1ccccc1`, the IC50 turned out to be 25 nM. With `CCN(Cc1cc(C(F)(F)F)ccc1-n1cc(CC(=O)O)c2ccc(C)nc21)C(=O)NCc1ccccc1` the figure was 4.7 nM; with `Cc1ccc2c(CC(=O)O)cn(-c3ccc(C(F)(F)F)cc3CN(CC3CC3)C(=O)C3CC3)c2n1`, 22 nM; with `Cc1ccc2c(CC(=O)O)cn(-c3ccc(C(F)(F)F)cc3CN(CCOc3ccccc3)C(=O)C3CC3)c2n1`, 60 nM.
